Measured values from patent US7714135B2, “Tetrahydropyridothiophenes for the treatment of proliferative diseases such as cancer” (4SC AG, priority 2005, dated 2010).

What was measured:
[1] = tested on: RKO (RKOp27) human colon adenocarcinoma cells; assay: Alamar Blue cell viability assay, anti-proliferative/cytotoxic activity on proliferating (uninduced) RKOp27 cells; format: cell-based; details: RKOp27 subclone without inducer, 72 hours incubation, read-out: IC50 RKO p27 uninduced (proliferating)
Description: The anti-proliferative/cytotoxic activity of the compounds described herein, can be tested on subclones of RKO (RKOp27) human colon adenocarcinoma cells (Schmidt et al., Oncogene 19, 2423-2429; 2000) using the Alamar Blue cell viability assay (described in O'Brien et al. Eur J Biochem 267, 5421-5426, 2000). The compounds are dissolved as 20 mM solutions in dimethylsulfoxide (DMSO) and subsequently diluted in semi-logarithmic steps. DMSO dilutions are further diluted 1:100 into Dulbecco's modified Eagle's medium (DMEM) containing 10% fetal calf serum to a final concentration twice as much as the final concentration in the test. RKO subclones are seeded into 96 well flat bottom plates at a density of 4000 cells per well in a volume of 50 μl per well. 24 hours after seeding the 50 μl each of the compound dilutions in DMEM medium are added into each well of the 96 Well plate. Each compound dilution is tested as quadruplicates. Wells containing untreated control cells are filled with 50 μl DMEM medium containing 1% DMSO. The cells are then incubated with the substances for 72 hours at 37° C. in a humidified atmosphere containing 5% carbon dioxide. To determine the viability of the cells, 10 μl of an Alamar Blue solution (Biosource) are added and the fluorescence is measured at an extinction of 544 nm and an emission of 590 nm. For the calculation of the cell viability the emission value from untreated cells is set as 100% viability and the emission rates of treated cells are set in relation to the values of untreated cells. Viabilities are expressed as % values.
The corresponding IC50 values of the compounds for anti-proliferative/cytotoxic activity are determined from the concentration-effect curves.
Representative IC50 values for anti-proliferation/cytotoxicity determined in the mentioned assay follow from the following table A, in which the numbers of the compound correspond to the numbers of the examples.

[2] = tested on: RKO colon adenocarcinoma cells (RKOp27) arrested by the expression of ectopic p27Kip1; assay: Alamar Blue cell viability assay on RKOp27 cells arrested by Ponasterone A-induced p27Kip1 expression (cell cycle specific mode of action); format: cell-based; details: Homo sapiens, RKOp27 subclone induced with 10 μM Ponasterone A, 72 hours incubation, read-out: IC50 RKO p27 induced (arrested)
Description: To determine the cell cycle specific mode of action, subclones of RKO colon adenocarcinoma cells (RKOp27 or RKOp21 as described by Schmidt et al. in Oncogene 19, 2423-2429; 2000) are seeded into 96 well flat bottom plates at a density of 16000 cells per well in a volume of 50 μl per well in DMEM growth medium with 10% FCS containing 10 μM Ponasterone A. 24 hours after seeding the 50 μl each of the compound dilutions in DMEM medium are added into each well of the 96 Well plate. Each compound dilution is tested as quadruplicates. Wells containing untreated control cells are filled with 50 μl DMEM medium containing 1% DMSO. The cells are then incubated with the substances for 72 hours at 37° C. in a humidified atmosphere containing 5% carbon dioxide. To determine the viability of the cells, 10 μl of an Alamar Blue solution (Biosource) are added and the fluorescence was measured at an extinction of 544 nm and an emission of 590 nm. For the calculation of the cell viability the emission value from untreated cells is set as 100% viability and the emission rates of treated cells are set in relation to the values of untreated cells. Viabilities are expressed as % values. Viability is compared of proliferating cells grown in the absence of the inducer Ponasterone A, versus viability of cells arrested by the expression of ectopic p27Kip1 induced by Ponasterone A.

Structure (SMILES)	IC50 [2] [nM]	IC50 [1] [nM]
CCOC(=O)N1CCc2c(sc(NC(=O)CCc3ccccn3)c2C#N)C1 [Example 36, 3-Cyano-2-(3-pyridin-2-yl-propanoylamino)-4,7-dihydro-5H-thieno[2,3-c]pyridine-6-carboxylic acid ethyl ester]	> 100000	≤ 300
CCOC(=O)N1CCc2c(sc(NC(=O)CCc3ccccc3)c2C#N)C1 [Example 1, 3-Cyano-2-(3-phenyl-propanoylamino)-4,7-dihydro-5H-thieno[2,3-c]pyridine-6-carboxylic acid ethyl ester]	> 100000	≤ 300
N#Cc1c(NC(=O)CCc2ccco2)sc2c1CCN(C(=O)OCc1ccccn1)C2 [Example 42, 3-Cyano-2-(3-furan-2-yl-propanoylamino)-4,7-dihydro-5H-thieno[2,3-c]pyridine-6-carboxylic acid pyridin-2-ylmethyl ester]	> 100000	≤ 300
COCCOC(=O)N1CCc2c(sc(NC(=O)CCc3ccco3)c2C#N)C1 [Example 41, 3-Cyano-2-(3-furan-2-yl-propanoylamino)-4,7-dihydro-5H-thieno[2,3-c]pyridine-6-carboxylic acid 2-methoxy-ethyl ester]	> 100000	≤ 300
CCOC(=O)N1CCc2c(sc(NC(=O)C(C)Cc3ccccc3)c2C#N)C1 (centres unmarked) [Example 6, 3-Cyano-2-(2-methyl-3-phenyl-propanoylamino)-4,7-dihydro-5H-thieno[2,3-c]pyridine-6-carboxylic acid ethyl ester]	> 100000	300 to 2000
CCOC(=O)N1CCc2c(sc(NC(=O)CCc3ccc(F)cc3)c2C#N)C1 [Example 8, 3-Cyano-2-(3-(4-fluoro-phenyl)-propanoylamino)-4,7-dihydro-5H-thieno[2,3-c]pyridine-6-carboxylic acid ethyl ester]	> 100000	≤ 300
CCOC(=O)N1CCc2c(sc(NC(=O)CCn3nccc3C)c2C#N)C1 [Example 20, 3-Cyano-2-[3-(5-methyl-pyrazol-1-yl)-propanoylamino]-4,7-dihydro-5H-thieno[2,3-c]pyridine-6-carboxylic acid ethyl ester]	> 100000	300 to 2000
CCOC(=O)N1CCc2c(sc(NC(=O)CCC3CCCO3)c2C#N)C1 (centres unmarked) [Example 21, 3-Cyano-2-(3-tetrahydro-furan-2-yl-propanoylamino)-4,7-dihydro-5H-thieno[2,3-c]pyridine-6-carboxylic acid ethyl ester]	> 100000	≤ 300
CCOC(=O)N1CCc2c(sc(NC(=O)CCc3cccnc3)c2C#N)C1 [Example 9, 3-Cyano-2-(3-pyridin-3-yl-propanoylamino)-4,7-dihydro-5H-thieno[2,3-c]pyridine-6-carboxylic acid ethyl ester]	> 100000	300 to 2000
CCOC(=O)N1CCc2c(sc(NC(=O)CCc3cccc(Cl)c3)c2C#N)C1 [Example 16, 2-[3-(3-Chloro-phenyl)-propanoylamino]-3-cyano-4,7-dihydro-5H-thieno[2,3-c]pyridine-6-carboxylic acid ethyl ester]	> 100000	≤ 300
CCOC(=O)N1CCc2c(sc(NC(=O)CC(C)c3ccccc3)c2C#N)C1 (racemic) [Example 4, 3-Cyano-2-((RS)-3-phenyl-butanoylamino)-4,7-dihydro-5H-thieno[2,3-c]pyridine-6-carboxylic acid ethyl ester]	> 100000	≤ 300
N#Cc1c(NC(=O)CCc2ccco2)sc2c1CCN(C(=O)OCCc1ccccn1)C2 [Example 45, 3-Cyano-2-(3-furan-2-yl-propanoylamino)-4,7-dihydro-5H-thieno[2,3-c]pyridine-6-carboxylic acid 2-pyridin-2-yl-ethyl ester]	> 100000	≤ 300
CCOC(=O)N1CCc2c(sc(NC(=O)CCc3cccc(C)c3)c2C#N)C1 [Example 18, 3-Cyano-2-(3-m-tolyl-propanoylamino)-4,7-dihydro-5H-thieno[2,3-c]pyridine-6-carboxylic acid ethyl ester]	> 100000	≤ 300
CC(C)(C)OC(=O)N1CCc2c(sc(NC(=O)CCc3ccccc3)c2C#N)C1 [Example 22, 3-Cyano-2-(3-phenyl-propanoylamino)-4,7-dihydro-5H-thieno[2,3-c]pyridine-6-carboxylic acid tert-butyl ester]	> 100000	≤ 300
CCOC(=O)N1CCc2c(sc(NC(=O)CCc3cccc4c3OC(F)(F)O4)c2C#N)C1 [Example 33, 3-Cyano-2-[3-(2,2-difluoro-benzo[1,3]dioxol-4-yl)-propanoylamino]-4,7-dihydro-5H-thieno[2,3-c]pyridine-6-carboxylic acid ethyl ester]	> 100000	300 to 2000

The next lines start with results.

IC50 [2] [nM]	Structure (SMILES)	IC50 [1] [nM]
> 100000	CCOC(=O)N1CCc2c(sc(NC(=O)CCc3ccccc3Cl)c2C#N)C1 [Example 13, 2-[3-(2-Chloro-phenyl)-propanoylamino]-3-cyano-4,7-dihydro-5H-thieno[2,3-c]pyridine-6-carboxylic acid ethyl ester]	≤ 300
> 100000	N#Cc1c(NC(=O)CCc2cccnc2)sc2c1CCN(C(=O)OCc1ccccn1)C2 [Example 38, 3-Cyano-2-(3-pyridin-3-yl-propanoylamino)-4,7-dihydro-5H-thieno[2,3-c]pyridine-6-carboxylic acid pyridin-2-ylmethyl ester]	300 to 2000
> 100000	CCOC(=O)N1CCc2c(sc(NC(=O)CCc3ccccc3C)c2C#N)C1 [Example 3, 3-Cyano-2-(3-o-tolyl-propanoylamino)-4,7-dihydro-5H-thieno[2,3-c]pyridine-6-carboxylic acid ethyl ester]	≤ 300
> 100000	N#Cc1c(NC(=O)CCc2ccco2)sc2c1CCN(C(=O)OCCO)C2 [Example 55, 3-Cyano-2-(3-furan-2-yl-propanoylamino)-4,7-dihydro-5H-thieno[2,3-c]pyridine-6-carboxylic acid 2-hydroxy-ethyl ester]	≤ 300
> 100000	CCOC(=O)N1CCc2c(sc(NC(=O)C3CC3c3ccco3)c2C#N)C1 (centres unmarked) [Example 48, 3-Cyano-2-{[1-(2-furan-2-yl-cyclopropyl)-methanoyl]-amino}-4,7-dihydro-5H-thieno[2,3-c]pyridine-6-carboxylic acid ethyl ester]	≤ 300
> 100000	CC(C)(C)OC(=O)N1CCc2c(sc(NC(=O)CCc3cccnc3)c2C#N)C1 [Example 15, 3-Cyano-2-(3-pyridin-3-yl-propanoylamino)-4,7-dihydro-5H-thieno[2,3-c]pyridine-6-carboxylic acid tert-butyl ester]	≤ 300
> 100000	CC(CC(=O)Nc1sc2c(c1C#N)CCN(C(=O)OCCc1cccnc1)C2)c1ccccc1 (racemic) [Example 92, 3-Cyano-2-((RS)-3-phenyl-butanoylamino)-4,7-dihydro-5H-thieno[2,3-c]pyridine-6-carboxylic acid 2-pyridin-3-yl-ethyl ester]	≤ 300
> 100000	N#Cc1c(NC(=O)CCc2ccco2)sc2c1CCN(C(=O)OCCN1CCOCC1)C2 [Example 51, 3-Cyano-2-(3-furan-2-yl-propanoylamino)-4,7-dihydro-5H-thieno[2,3-c]pyridine-6-carboxylic acid 2-morpholin-4-yl-ethyl ester]	≤ 300
> 100000	CCOC(=O)N1CCc2c(sc(NC(=O)CCc3cccs3)c2C#N)C1 [Example 7, 3-Cyano-2-(3-thiophen-2-yl-propanoylamino)-4,7-dihydro-5H-thieno[2,3-c]pyridine-6-carboxylic acid ethyl ester]	≤ 300
≥ 40000	N#Cc1c(NC(=O)CCc2cccnc2)sc2c1CCN(C(=O)OCc1ccncc1)C2 [Example 40, 3-Cyano-2-(3-pyridin-3-yl-propanoylamino)-4,7-dihydro-5H-thieno[2,3-c]pyridine-6-carboxylic acid pyridin-4-ylmethyl ester]	300 to 2000
